Patent publication US20130281399A1, “TREATMENT OF DISEASES BY EPIGENETIC REGULATION” (RVX Therapeutics Inc., priority 2012, published 2013)

Each compound was assayed against T1, Brd4 bromodomain 1 (Homo sapiens, UniProt O60885) (assay: Inhibition of binding of tetra-acetylated histone H4 to Brd4 bromodomain 1 (TR-FRET)). Conditions: His-tagged Brd4 bromodomain 1 200 nM, tetra-acetylated histone H4 peptide 25-50 nM, 2 hours room temperature.
T1 construct: made in house; host or cells: E. coli BL21(DE3)
Description: Proteins were cloned and overexpressed with a N-terminal 6×His tag, then purified by nickel affinity followed by size exclusion chromatography. Briefly, E. coli BL21(DE3) cells were transformed with a recombinant expression vector encoding N-terminally Nickel affinity tagged bromodomains from Brd2, Brd3, Brd4. Cell cultures were incubated at 37° C. with shaking to the appropriate density and induced overnight with IPTG. The supernatant of lysed cells was loaded onto Ni-IDA column for purification. Eluted protein was pooled, concentrated and further purified by size exclusion chromatography. Fractions representing monomeric protein were pooled, concentrated, aliquoted, and frozen at −80° C. for use in subsequent experiments.
For inhibition assays, serially diluted test compound was added to these reactions in a 0.2% final concentration of DMSO. Final buffer concentrations were 30 mM HEPES pH 7.4, 30 mM NaCl, 0.3 mM CHAPS, 20 mM phosphate pH 7.0, 320 mM KF, 0.08% BSA). […] The binding inhibitory activity was shown by a decrease in 665 nm fluorescence relative to 620 nm. IC50 values were determined from a dose response curve.

FRET activity (<50 uM) | SMILES
Active | COc1cc(OC)c2c(=O)[nH]c(-c3ccc(N4CCC(N(Cc5ccccc5)C(C)=O)CC4)nc3)nc2c1 [Example 49, N-Benzyl-N-(1-(5-(5,7-dimethoxy-4-oxo-3,4-dihydroquinazolin-2-yl)pyridin-2-yl)piperidin-4-yl)acetamide]
Active | COc1cc(OC)c2c(=O)[nH]c(-c3ccc(N4CCC(N(C)C(C)=O)C4)cc3)nc2c1 (centres unmarked) [Example 46, N-(1-(4-(5,7-dimethoxy-4-oxo-3,4-dihydroquinazolin-2-yl)phenyl)pyrrolidin-3-yl)-N-methylacetamide]
Inactive | Cc1cc(-c2nc3nc(OC(C)C)cc(OC(C)C)c3c(=O)[nH]2)cc(C)c1OCCN1CCCC1 [Example 91, 2-(3,5-Dimethyl-4-(2-(pyrrolidin-1-yl)ethoxy)phenyl)-5,7-diisopropoxypyrido[2,3-d]pyrimidin-4(3H)-one]
Active | COc1cc(OC)c2c(=O)[nH]c(-c3ccc(CN4CCN(C(C)C)CC4)cc3)nc2c1 [Example 93, 2-(4-((4-Isopropylpiperazin-1-yl)methyl)phenyl)-5,7-dimethoxyquinazolin-4(3H)-one]
Active | COCCOc1cc(OC)cc2nc(-c3cc(C)nc(C)c3)[nH]c(=O)c12 [Example 105, 2-(2,6-Dimethylpyridin-4-yl)-7-methoxy-5-(2-methoxyethoxy)quinazolin-4(3H)-one]
Active | COc1cc(OC)c2c(=O)[nH]c(-c3ccc(N4CCC(NC(C)C)CC4)cc3)nc2c1 [Example 47, 2-(4-(4-(Isopropylamino)piperidin-1-yl)phenyl)-5,7-dimethoxyquinazolin-4(3H)-one]
Inactive | COc1cc(OC)c2c(=O)[nH]c(-c3ccc(N4CCN(Cc5ccc(F)cc5)CC4)cc3)nc2c1 [Example 29, 2-(4-(4-(4-Fluorobenzyl)piperazin-1-yl)phenyl)-5,7-dimethoxyquinazolin-4(3H)-one]
Active | CCCCN1CCN(c2ccc(-c3nc4cc(OC)cc(OC)c4c(=O)[nH]3)cc2)CC1 [Example 2, 2-(4-(4-butylpiperazin-1-yl)phenyl)-5,7-dimethoxyquinazolin-4(3H)-one]
Active | COc1cc(OC)c2c(=O)[nH]c(-c3cc(C)c(OCCN4CCCCC4)c(C)c3)nc2c1 [Example 72, 2-(3,5-Dimethyl-4-(2-(piperidin-1-yl)ethoxy)phenyl)-5,7-dimethoxyquinazolin-4(3H)-one]
Active | COc1cc(OC)c2c(=O)[nH]c(-c3ccc(N4CCNCC4)cc3)nc2c1 [Example 12, 5,7-Dimethoxy-2-(4-(piperazin-1-yl)phenyl)quinazolin-4(3H)-one]
Active | COc1cc(OC)c2c(=O)[nH]c(-c3ccc(N4CCC(NC(=O)N(C)C)CC4)cc3)nc2c1 [Example 15, 3-(1-(4-(5,7-Dimethoxy-4-oxo-3,4-dihydroquinazolin-2-yl)phenyl)piperidin-4-yl)-1,1-dimethylurea]
Active | COc1cc(OC)c2c(=O)[nH]c(-c3ccc(N4C[C@@H](C)N(C(C)C)[C@@H](C)C4)cc3)nc2c1 [Example 42, 2-(4-((3R,5S)-4-Isopropyl-3,5-dimethylpiperazin-1-yl)phenyl)-5,7-dimethoxyquinazolin-4(3H)-one]
Active | COc1cc(OC)c2c(=O)[nH]c(-c3ccc(NS(C)(=O)=O)cc3)nc2c1 [Example 59, N-(4-(5,7-Dimethoxy-4-oxo-3,4-dihydroquinazolin-2-yl)phenyl)methanesulfonamide]
Active | COc1cc(OC)c2c(=O)[nH]c(-c3ccc4[nH]c(CO)cc4c3)nc2c1 [Example 53, 2-(2-(Hydroxymethyl)-1H-indol-5-yl)-5,7-dimethoxyquinazolin-4(3H)-one]
Active | COc1cc(OC)c2c(=O)[nH]c(-c3ccc(N4CCN(C(=O)c5ccccn5)CC4)cc3)nc2c1 [Example 21, 5,7-Dimethoxy-2-(4-(4-picolinoylpiperazin-1-yl)phenyl)quinazolin-4(3H)-one]
Active | COc1cc(OC)c2c(=O)[nH]c(-c3ccc(N4CCN(CCO)CC4)cc3)nc2c1 [Example 1, 2-(4-(4-(2-hydroxyethyl)piperazin-1-yl)phenyl)-5,7-dimethoxyquinazolin-4(3H)-one]
Active | COc1cc(OC)c2c(=O)[nH]c(-c3ccc(C4CCN(C(C)=O)CC4)cc3)nc2c1 [Example 3, 2-(4-(1-acetylpiperidin-4-yl)phenyl)-5,7-dimethoxyquinazolin-4(3H)-one]
Active | COc1cc(OC)c2c(=O)[nH]c(-c3ccc(N4CCCNCC4)cc3)nc2c1 [Example 33, 2-(4-(1,4-Diazepan-1-yl)phenyl)-5,7-dimethoxyquinazolin-4(3H)-one]

FRET activity (<50 uM) | SMILES
Active | COc1cc(OC)c2c(=O)[nH]c(-c3cc(C)c(OCCN4Cc5ccccc5C4)c(C)c3)nc2c1 [Example 65, 2-(4-(2-(Isoindolin-2-yl)ethoxy)-3,5-dimethylphenyl)-5,7-dimethoxyquinazolin-4(3H)-one]
Active | COc1cc(OC)c2c(=O)[nH]c(-c3ccc(N4CCC(NCC5CC5)C4)cc3)nc2c1 (centres unmarked) [Example 4, 2-(4-(3-(cyclopropylmethylamino)pyrrolidin-1-yl)phenyl)-5,7-dimethoxyquinazolin-4(3H)-one]
Inactive | COc1cc(OC)c2c(=O)[nH]c(-c3ccc(N4CCC(NC(=O)c5ccccc5)CC4)cc3)nc2c1 [Example 20, N-(1-(4-(5,7-Dimethoxy-4-oxo-3,4-dihydroquinazolin-2-yl)phenyl)piperidin-4-yl)benzamide]
Active | COc1cc(OC)c2c(=O)[nH]c(-c3ccc(N4CCC(NC(C)=O)C4)cc3)nc2c1 (centres unmarked) [Example 39, N-(1-(4-(5,7-Dimethoxy-4-oxo-3,4-dihydroquinazolin-2-yl)phenyl)pyrrolidin-3-yl)acetamide]
Inactive | COc1cc(OC)c2c(=O)[nH]c(-c3ccc(N4CCC(=O)CC4)cc3)nc2n1 [Example 52, 5,7-Dimethoxy-2-(4-(4-oxopiperidin-1-yl)phenyl)pyrido[2,3-d]pyrimidin-4(3H)-one]
Active | COc1cc(OC)c2c(=O)[nH]c(-c3ccc(N4C[C@@H](C)N[C@@H](C)C4)cc3)nc2c1 [Example 37, 2-(4-((3R,5S)-3,5-Dimethylpiperazin-1-yl)phenyl)-5,7-dimethoxyquinazolin-4(3H)-one]
Active | COc1cc(OC)c2c(=O)[nH]c(-c3ccc(N4CCC(NCc5ccccc5)CC4)nc3)nc2c1 [Example 50, 2-(6-(4-(Benzylamino)piperidin-1-yl)pyridin-3-yl)-5,7-dimethoxyquinazolin-4(3H)-one]
Active | COc1cc(OC)c2c(=O)[nH]c(-c3ccc(N4CCCN(C(C)=O)CC4)cc3)nc2c1 [Example 32, 2-(4-(4-Acetyl-1,4-diazepan-1-yl)phenyl)-5,7-dimethoxyquinazolin-4(3H)-one]
Active | COc1cc(OC)c2c(=O)[nH]c(-c3ccc4[nH]c(CN5CCCC5)cc4c3)nc2c1 [Example 55, 5,7-Dimethoxy-2-(2-(pyrrolidin-1-ylmethyl)-1H-indol-5-yl)quinazolin-4(3H)-one]
Active | COc1cc(OC)c2c(=O)[nH]c(-c3cc(C)c(OCCCN4CCCC4)c(C)c3)nc2c1 [Example 75, 2-(3,5-Dimethyl-4-(3-(pyrrolidin-1-yl)propoxy)phenyl)-5,7-dimethoxyquinazolin-4(3H)-one]
Active | COc1cc(OC)c2c(=O)[nH]c(-c3ccc(N4CCN(C(=O)c5ccncc5)CC4)cc3)nc2c1 [Example 23, 2-(4-(4-Isonicotinoylpiperazin-1-yl)phenyl)-5,7-dimethoxyquinazolin-4(3H)-one]
Inactive | COc1cc(OC)c2c(=O)[nH]c(-c3ccc(N4CCN(C(=O)c5ccc(F)cc5)CC4)cc3)nc2c1 [Example 19, 2-(4-(4-(4-Fluorobenzoyl)piperazin-1-yl)phenyl)-5,7-dimethoxyquinazolin-4(3H)-one]
Inactive | COc1cc(OC)c2c(=O)[nH]c(-c3cc(C)c(OCCN4C(=O)c5ccccc5C4=O)c(C)c3)cc2c1 [Example 90, 2-(2-(4-(6,8-Dimethoxy-1-oxo-1,2-dihydroisoquinolin-3-yl)-2,6-dimethylphenoxy)ethyl)isoindoline-1,3-dione]
Active | COc1cc(OC)c2c(=O)[nH]c(-c3ccc4[nH]c(CN(C)C)cc4c3)nc2c1 [Example 58, 2-(2-((Dimethylamino)methyl)-1H-indol-5-yl)-5,7-dimethoxyquinazolin-4(3H)-one]
Active | COc1cc(OC)c2c(=O)[nH]c(-c3ccc(CN4CCC(NC(C)C)CC4)cc3)nc2c1 [Example 95, 2-(4-((4-(Isopropylamino)piperidin-1-yl)methyl)phenyl)-5,7-dimethoxyquinazolin-4(3H)-one]
Inactive | O=c1[nH]c(-c2ccc(N3CCN(CC(F)(F)F)CC3)cc2)nc2ccccc12 [Example 31, 2-(4-(4-(2,2,2-Trifluoroethyl)piperazin-1-yl)phenyl)quinazolin-4(3H)-one]
Inactive | COc1cc(OC)c2c(=O)[nH]c(-c3ccc(Nc4ccc(C)cc4)cc3)nc2c1 [Example 61, 5,7-Dimethoxy-2-(4-(p-tolylamino)phenyl)quinazolin-4(3H)-one]
